Key:
[1] = system: recombinant human truncated SHIP1 (tSHIP1); test: Malachite green phosphatase release assay, SHIP1; type: biochemical; settings: for Malachite (250 µM) % Inhib. SHIP1: 250 µM compound; for Malachite (500 µM) % Inhib. SHIP1: 500 µM compound; for activity against SHIP1 (in words): summary of Table 1
Method: These compounds were then tested for their activity against the two SHIP paralogs, SHIP1 and SHIP2 in the colorimetric malachite green phosphatase assay. The malachite green assay detects the amount of free phosphate produced from enzymatic reactions with SHIP and an inositol phospholipid substrate. The Malachite assay is useful for ruling out compounds that are fluorescent or have aggregation issues and is inexpensive, so it was utilized as the primary screen even though it is not as sensitive as other assays.
(§1) 4.7. Malachite Green Phosphatase Release Assays
(§2) Malachite green assays to monitor phosphatase release (Echelon Biosciences) were performed with recombinant human truncated SHIP1 (tSHIP1) and SHIP2 (Echelon Biosciences). Serial dilutions of the compounds dissolved in DMSO were added to the recombinant enzymes diluted in reaction buffer Rx (50 mM Hepes pH 7.4, 150 mM NaCl, 1 mM MgCl2, 0.25 mM EDTA) in triplicate reaction wells in 96-well plates. After incubation for 2 min at room temperature, 2.5 µL of 1 mM phosphatidylinositol 3,4,5-trisphosphate diC8 (PI(3,4,5)P3-diC8, Echelon Biosciences) was added to each reaction to a final concentration of 100 µM in a final volume of 25 µL /well. Following a 20 min incubation at 37 °C, 100 µL of Malachite Green solution (Echelon Biosciences) was added to each well and the plates were incubated at room temperature in the dark for 15 min. Plates were then read at 620 nm on a plate reader (Synergy 2, BioTek, Santa Clara, CA, USA). In addition, 3α-Aminocholestane, a known SHIP1 inhibitor, and AS1949490, a known SHIP2 inhibitor, were used as positive controls.

[2] = target: T1, SHIP2 (Homo sapiens, UniProt O15357); test: Malachite green phosphatase release assay, SHIP2; type: biochemical
T1 construct: purchased Echelon Biosciences
T1 sequence (O15357 1-1258): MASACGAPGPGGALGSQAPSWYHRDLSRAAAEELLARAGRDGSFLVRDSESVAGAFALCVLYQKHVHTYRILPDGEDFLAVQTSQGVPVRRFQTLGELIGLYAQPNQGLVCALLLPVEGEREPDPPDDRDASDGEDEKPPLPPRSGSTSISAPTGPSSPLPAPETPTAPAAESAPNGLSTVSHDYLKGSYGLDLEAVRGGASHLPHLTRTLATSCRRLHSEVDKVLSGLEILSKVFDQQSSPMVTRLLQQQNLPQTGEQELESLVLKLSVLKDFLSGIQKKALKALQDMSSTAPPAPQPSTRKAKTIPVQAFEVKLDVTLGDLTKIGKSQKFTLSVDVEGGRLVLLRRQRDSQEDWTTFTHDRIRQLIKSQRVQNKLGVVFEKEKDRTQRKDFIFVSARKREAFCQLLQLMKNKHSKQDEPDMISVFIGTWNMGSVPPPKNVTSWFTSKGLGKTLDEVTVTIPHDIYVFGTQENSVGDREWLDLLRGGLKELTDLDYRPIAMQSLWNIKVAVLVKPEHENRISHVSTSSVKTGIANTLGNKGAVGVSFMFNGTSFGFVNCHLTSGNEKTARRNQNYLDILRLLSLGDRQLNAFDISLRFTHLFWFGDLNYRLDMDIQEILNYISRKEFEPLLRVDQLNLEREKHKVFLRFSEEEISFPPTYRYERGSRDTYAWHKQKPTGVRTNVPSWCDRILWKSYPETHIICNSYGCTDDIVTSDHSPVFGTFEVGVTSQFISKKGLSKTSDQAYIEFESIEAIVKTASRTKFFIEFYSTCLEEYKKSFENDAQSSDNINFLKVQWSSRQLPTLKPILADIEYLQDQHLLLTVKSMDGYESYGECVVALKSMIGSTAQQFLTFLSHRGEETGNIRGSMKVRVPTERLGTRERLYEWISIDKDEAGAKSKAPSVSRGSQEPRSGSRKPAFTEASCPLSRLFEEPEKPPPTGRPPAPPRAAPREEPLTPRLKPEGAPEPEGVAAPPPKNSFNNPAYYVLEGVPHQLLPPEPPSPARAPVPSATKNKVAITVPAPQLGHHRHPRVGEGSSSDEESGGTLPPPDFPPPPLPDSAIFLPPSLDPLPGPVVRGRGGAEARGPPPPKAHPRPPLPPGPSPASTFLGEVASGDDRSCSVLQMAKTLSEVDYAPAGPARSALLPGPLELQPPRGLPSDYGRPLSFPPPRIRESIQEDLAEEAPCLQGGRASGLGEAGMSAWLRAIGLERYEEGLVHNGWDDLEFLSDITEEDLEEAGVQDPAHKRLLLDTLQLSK
Method: (§3) These compounds were then tested for their activity against the two SHIP paralogs, SHIP1 and SHIP2 in the colorimetric malachite green phosphatase assay. The malachite green assay detects the amount of free phosphate produced from enzymatic reactions with SHIP and an inositol phospholipid substrate.
as §1, §2

[3] = target: T2, tSHIP1 (Homo sapiens, UniProt Q92835); test: Fluorescence Polarization (FP) assay for the detection of PI(3,4)P2, SHIP1; type: biochemical
T2 sequence (Q92835 399-715 limits assumed): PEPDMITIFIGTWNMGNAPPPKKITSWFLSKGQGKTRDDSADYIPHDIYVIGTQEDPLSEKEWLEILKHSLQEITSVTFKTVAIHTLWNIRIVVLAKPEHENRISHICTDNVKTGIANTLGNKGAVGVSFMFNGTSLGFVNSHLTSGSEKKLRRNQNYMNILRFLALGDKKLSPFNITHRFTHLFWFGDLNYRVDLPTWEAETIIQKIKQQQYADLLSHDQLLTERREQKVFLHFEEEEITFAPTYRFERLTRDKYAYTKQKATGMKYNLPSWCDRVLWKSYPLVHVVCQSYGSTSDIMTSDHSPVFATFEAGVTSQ
Method: as §3
4.8. Fluorescence Polarization (FP) Assays for the Detection of PI(3,4)P2
The FP Assay for the detection of PI(3,4)P2 (Echelon Biosciences) was performed using tSHIP1 [48] with serial dilutions of the tryptamines in DMSO according to the manufacturer’s recommendation as previously described. […] 40 µL of 4 µM PIP3 (PI(3,4,5)P3-diC8) in Rx buffer is added to each reaction and incubated at 37 °C for 20 min, followed by heat inactivation for 3 min at 95 °C. Reactions were spun down briefly and 10 µL of each reaction was added in 6 replicate wells to a black 384-well plate provided with the FP kit. 10 µL of 1X reconstituted Detector (a phosphoinositide binding protein) in PBS is then added to each well, followed by 5 µL of 1X freshly diluted Probe (in PBS, a fluorophore-labeled phosphoinositide) protected from light. Assay plates are gently tapped to mix, the plate is sealed and spun down briefly and the reaction is allowed to equilibrate for 60 min at room temperature protected from light.

[4] = system: mice; test: Side effect observed in mice; settings: in vivo
[5] = system: OCRL; design: method as in PMID 22033675; settings: cited from earlier work
[6] = system: multiple myeloma cells; design: method as in PMID 22033675; settings: followed by caspase cascade activation leading to extensive apoptosis; cited from earlier work
[7] = system: several cell lines, especially breast cancer cells; design: method as in PMID 22033675, PMID 27716613; settings: cited from earlier work
[8] = system: human blood cell cancers that express SHIP1; design: method as in PMID 20200281, PMID 22033675; settings: cited from earlier work
[9] = system: multiple myeloma; design: method as in PMID 22033675; settings: xenogeneic multiple myeloma model in mice; cited from earlier work
[10] = system: leukemia cell lines (NB4, HSB2, K562 and 697-Pre-B), multiple myeloma cell line OPM-2, breast cancer cell lines MBA-MD-231 and MCF-7; test: MTT cell viability assay on cancer cell lines; type: cell-based; settings: Figure 3
Excerpt: . The assay monitors the ability of NADPH-dependent cellular oxidoreductases to reduce the dye MTT (3-(4,5-dimethylthiazol-2-yl)-2,5-diphenyltetrazolium bromide), which when reduced produces a purple color that can be easily quantified. This assay is often used to determine cell viability. […] All of these cell lines express SHIP1 due to their hematopoietic origin, as SHIP1 is selectively expressed in blood and bone marrow cells. Cytotoxicity was also found on the breast cancer cell lines MBA-MD-231 and MCF-7, which is likely due to the inhibition of SHIP2. […]. 4.9. MTT Cell Viability Assay
Cells were treated in triplicate or more with increasing concentrations of the compound. Cell viability was determined with a Cell Counting Kit (Dojindo Molecular Technologies, Rockville, MD, USA) per the manufacturer’s instructions. The […] (OD) of compound-treated cells was divided by the OD of their vehicle control, and the viability was expressed as a percentage of untreated cells. Results are expressed as mean ± standard error of the mean (SEM) of three individual experiments. […]

SMILES: CSc1ccc2c(c1)c(CCN)c(C)n2Cc1ccccc1Cl.Cl [Compound 1, 2-(1-(2-Chlorobenzyl)-2-methyl-5-(methylthio)-1H-indol-3-yl)ethanaminium chloride]
- Malachite (250 µM) % Inhib. SHIP1 [1]: 7%
- Malachite (500 µM) % Inhib. SHIP1 [1]: 51%
- activity against SHIP1 (in words) [1]: significant activity
- inhibition at 250 µM ([2]; 250 µM compound, read-out: Malachite (250 µM) % Inhib. SHIP2): 7%
- inhibition at 500 µM ([2]; 500 µM compound, read-out: Malachite (500 µM) % Inhib. SHIP2): 59%
- activity against SHIP2 (in words) ([2]; summary of Table 1): significant activity
- IC50 [3]: 5 µM
- psychotropic effect in mice [4]: induced a psychotropic effect
- effect on OCRL [5]: no effect
- cell cycle effect in multiple myeloma cells [6]: G2/M cell cycle arrest
- antitumor effects on cell lines [7]: significant antitumor effects

SMILES: CC(C)CCC[C@@H](C)[C@H]1CC[C@H]2[C@@H]3CC[C@H]4C[C@H](N)CC[C@]4(C)[C@H]3CC[C@]12C [Compound 3AC, 3α-aminocholestane]
- Akt activation and apoptosis [8]: reduces Akt activation and promotes apoptosis
- protection from multiple myeloma growth [9]: effective in protecting the majority of mice

SMILES: CSc1ccc2c(c1)c(CCN)c(C)n2Cc1ccc(Cl)cc1Cl.Cl [Compound 7d, 2-(1-(2,4-Dichlorobenzyl)-2-methyl-5-(methylthio)-1H-indol-3-yl)ethanaminium chloride]
- Malachite (250 µM) % Inhib. SHIP1 [1]: 32%
- Malachite (500 µM) % Inhib. SHIP1 [1]: 52%
- activity against SHIP1 (in words) [1]: significant activity
- cytotoxicity on cancer cell lines (in words) [10]: greatest cytotoxicity

— paper PMC9738565, “N1-Benzyl Tryptamine Pan-SHIP1/2 Inhibitors: Synthesis and Preliminary Biological Evaluation as Anti-Tumor Agents” (Molecules, 2022)
